Reference: patent publication US12514859B2, “Pyrazole pyrimidine derivative and uses thereof” (Yissum Research Development Company of the Hebrew …, priority 2015, dated 2026)

Legend:
IRAK1/4 = conditions: 10 μM; cited from earlier work
AML mice (MLL-AF9) = assay: MLL-AF9 acute myeloid leukemia (AML) mouse model; assay type: in vivo
Protocol: Generation of a mouse model of acute myeloid leukemia (AML) (FIG. 6) and treatment with the CKIα inhibitor A14 (FIGS. 7, 8 and 9) or A51 (FIGS. 11 and 12). To generate the MLL-AF9 Acute myeloid leukemia (AML) model, bone marrow (BM) cells from 10 week old wild type mouse were extracted and enriched for cKit expressing cells (EasySep #18757) and incubated overnight in RPMI supplemented with 15% FCS L-Glutamine, Pen/Strep (Biological Industries, Israel) and stem cell factor (SCF), IL-3, IL-6 and TPO (Peprotech). The culture was infected with MSCV-MLL-AF9-IRES-GFP retrovirus construct containing supernatant medium for 4 hours, then growth medium was added and infected cells were incubated at 37° C. for additional 24 h. The culture was then injected I.V. into sub lethally irradiated (500 rad) mice. Upon detectable steady increase of GFP expressing cells in the mice peripheral blood (checked by FACS analysis) and rise in leukocyte numbers and immature cells (detected by Wright-Giemsa stained blood films), mice were sacrificed and their BM was transferred (1st BMT) to sublethally irradiated WT hosts. Upon emergence of AML disease mice were sacrificed and 50,000 BM cells were transplanted (2nd BMT) into WT host mice. GFP expressing cells were monitored in the peripheral blood and upon detecting >10% GFP^+ in PB (day 11 after BMT) mice were treated with A14 inhibitor (FIG. 7A). A14 was administered by oral gavage once a day at a dose of 20 mg/kg for 3 days followed by 10 mg/kg/day for 6 more days. The inhibitor was dissolved in 1% methyl cellulose with 0.1% Tween 80 and 0.2% Poly-ethylene glycol (Vehicle). Control mice were treated with the vehicle only. Mice were monitored daily for cachexia, lethargy, and ruff coats, and moribund mice were sacrificed. For a single dose experiment (FIG. 11A) A51 was administered by oral gavage at a single dose of 20 mg/kg and mice were sacrificed 16 hours following treatment.
Complete blood counts. Peripheral venous blood was obtained from the mouse facial vein using standard techniques and analyzed using the auto hematology analyzer BC-2800 (Mindray) per manufacturer's instructions.
Single-dose treatment effect of a CKI inhibitor in AML mice and PD-L1 expression. AML mice were prepared by inoculating MLL-AF9 oncogene-transduced bone marrow cells to C57/BL6 mice. MLL-AF9 fusion represents one of a poor prognosis human AML induced by chromosomal translocation. 30 days after leukemia inoculation, the recipient mice have high white blood cells (WBC) counts (×10 higher than a normal mouse), and harbor >95% leukemia blasts in the bone marrow and 50% of the peripheral WBC in these mice are AML blasts. These mice have splenomegaly and their bones are pale and fragile due to the acute leukemia (FIG. 12).

Wnt/β-catenin = assay: β-catenin stabilization (Wnt pathway activation) in RKO cells (Western blot); assay type: cell-based; conditions: 16 hours, Western blot
Protocol: (§1) Primary Screen in RKO cells for compounds having typical CKIα inhibitory activity (β-catenin and p53 stabilization and histone H2AX phosphorylation; see Elyada et al, Nature 2011 Feb. 17; 470(7334):409-13; Pribluda et al, Cancer Cell 2013 Aug. 12; 24(2):242-56). RKO colorectal cells were incubated with 10 μM of each of the compounds for 16 hours at 37° C. Cells were washed with PBS and cell pellets were incubated with ice cold protein lysis buffer containing protease inhibitor cocktail (1/200; Calbiochem) and phosphatase inhibitors (20 mM p-nitrophenyl phosphate (PNPP), 20 mM β-glycerophosphate and 300 nM okadaic acid). Western blot analysis was performed by means of standard techniques. Blots were incubated with antibodies detecting β-catenin (1/2,500; BD Transduction), p53 (DO-1&1801 hybridoma mix; dilution of 1:20 of supernatants from each), CKIα (C-19; 1/1,000; Santa Cruz Biotechnology) and phospho-histoneH2AX (S139; 1/1,000; Millipore). Secondary antibodies were HRP-linked goat anti-mouse, goat anti-rabbit and rabbit anti-goat antibodies (all 1/10,000; Jackson). Blots were developed using ECL (GE Healthcare).
(§2) Active compounds were further analyzed in a dose-response experiment (FIGS. 1A and 1B). Similar to the primary screen, RKO cells were incubated with descending concentrations of each of the active compounds for 16 hours at 37° C. Cell extract isolation and Western Blot analysis were similar to the primary screen.
(§3) Table 1 provides quantified information for compounds of the invention in activation of p53 and DNA damage response (DDR) and β-catenin stabilization as an indicator of Wnt pathway activation. p53 activation was determined according to the degree of protein stabilization in several Western blot assays (Western blot examples are shown in FIGS. 1A and 1B). […] In contrast, A35 started stabilizing p53 at […], with maximal stabilization at […] (FIG. 1A, upper right panel) and thus received an average value of +++ for p53 activation.

IRAK1 [1] = target: T1, IRAK1 (Homo sapiens, UniProt P51617); assay: IRAK1 inhibition in RKO cells treated with TNFα (Western blot); assay type: cell-based
T1 construct: endogenous in cells; host or cells: RKO cells, stimulated with TNFα
T1 sequence (P51617 whole entry): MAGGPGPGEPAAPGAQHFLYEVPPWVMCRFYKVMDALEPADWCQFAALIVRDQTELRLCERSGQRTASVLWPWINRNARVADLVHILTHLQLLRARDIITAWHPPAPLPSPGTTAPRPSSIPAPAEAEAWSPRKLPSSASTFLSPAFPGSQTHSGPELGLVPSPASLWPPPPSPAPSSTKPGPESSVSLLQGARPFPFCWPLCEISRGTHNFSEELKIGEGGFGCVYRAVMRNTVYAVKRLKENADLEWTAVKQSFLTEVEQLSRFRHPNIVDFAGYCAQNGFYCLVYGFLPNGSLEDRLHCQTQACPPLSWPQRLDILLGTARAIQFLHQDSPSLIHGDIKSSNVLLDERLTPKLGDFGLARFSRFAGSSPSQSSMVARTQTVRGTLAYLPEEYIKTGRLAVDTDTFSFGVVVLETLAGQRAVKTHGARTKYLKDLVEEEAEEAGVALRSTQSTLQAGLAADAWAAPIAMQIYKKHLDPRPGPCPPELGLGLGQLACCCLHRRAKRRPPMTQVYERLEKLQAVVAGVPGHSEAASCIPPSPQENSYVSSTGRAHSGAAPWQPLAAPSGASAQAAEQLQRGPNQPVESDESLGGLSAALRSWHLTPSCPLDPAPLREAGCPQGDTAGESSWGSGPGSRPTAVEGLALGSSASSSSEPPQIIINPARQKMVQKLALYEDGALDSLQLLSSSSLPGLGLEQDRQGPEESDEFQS
Protocol: (§4) Cells were harvested and analyzed by Western blot. Blots were incubated with the following antibodies: Phospho-IRAK1 (Thr209), (A1074, AssayBiothechnology; 1/1,000), Phospho-IKKα/β (Ser176/180) (16A6, Cell Signaling; 1/1,000), IKKα (2682, cell signaling; 1/1,1000), IKK β (2370, cell signaling; 1/1,1000), Phospho-c-Jun (Ser 63) (9261, cell signaling; 1/1,1000), p53 (DO-1&1801 hybridoma mix; dilution of 1:20 of supernatants from each), CKIα (C-19; 1/1,000; Santa Cruz Biotechnology) and phospho-histoneH2AX (S139; 1/1,000; Millipore). Secondary antibodies were HRP-linked goat anti-mouse, goat anti-rabbit and rabbit anti-goat antibodies (all 1/10,000; Jackson). Inhibition of Phospho-IRAK1, Phospho-IKKα/β and Phospho-c-Jun indicate IRAK1 inhibition. p53 stabilization and phosphorylation of H2AX (γH2AX), a marker of DNA damage, indicative of CKIα kinase inhibition. CKIα protein levels serves as a loading control.
as §4, with “IRAK1 Inhibition with compounds of the invention. RKO cells were incubated for 16 hours at 37° C. with the indicated concentrations of compounds of the invention A51 (1 μM) and A14 (2 μM) (FIG. 10). At the indicated time points, RKO were treated with TNFα (100 units/ml). Cells” for “Cells”, “IKKβ” for “IKK β”, “Blots were developed using ECL (GE Healthcare). […] Also shown is” for “Inhibition of Phospho-IRAK1, Phospho-IKKα/β and Phospho-c-Jun indicate IRAK1 inhibition.”

IRAK1 [2] = target: T1, IRAK1; assay: Kd measurements for the interaction with IRAK1; assay type: binding
[3] = tested on: p53, DNA damage response (γH2AX); assay: p53 and DNA damage response activation in RKO cells (Western blot, primary screen and dose response); assay type: cell-based; conditions: 16 hours, Western blot, average value
Protocol: as §1, §2, §3

[4] = oral single dose 20 mg/Kg, 16 hrs

Compound | inhibition of IRAK1/4 in cell lines (IRAK1/4) [%] | leukemic spleen size (in words) (AML mice (MLL-AF9); [4]) | reduction of proportion of leukemic blasts (GFP+ cells) in the blood (AML mice (MLL-AF9); [4]) [%] | reduction of proportion of leukemic blasts (GFP+ cells) in the bone marrow (AML mice (MLL-AF9); [4]) [%] | total leukemia cells in the blood (in words) (AML mice (MLL-AF9); [4]) | bone colour (in words) (AML mice (MLL-AF9); single dose 20 mg/Kg) | β-Catenin activity (Wnt/β-catenin) | IRAK1 activation and activation of the IRAK1 target IKK (in words) (IRAK1 [1]; RKO cells, Western blot, A51 1 μM, A14 2 μM, 16 hours, TNFα 100 units/ml) | inhibition at 1 µM (IRAK1 [1]; RKO, read-out: inhibition of phospho-(active) IRAK1) [%] | Kd (IRAK1 [2]) [nM] | DDR & p53 activity [3]
O=C(Nc1nc2ccccc2n1CCN1CCOCC1)c1cccc([N+](=O)[O-])c1 [Amgen's IRAK1-4 inhibitor] | 70 |  |  |  |  |  |  |  |  |  | 
Cn1ncc(-c2nc(N[C@H]3CC[C@H](N)CC3)ncc2Cl)c1CC1CC1 [Compound A51, (1R, 4R)—N^1-(5-chloro-4-(5-(cyclopropylmethyl)-1-methyl-1H-pyrazol-4-yl)pyrimidin-2-yl)cyclohexane-1,4-diamine] |  | shrinking of the leukemic spleen | > 90 | 50 | massive reduction | Opaque bones turned to normal color | +++ (+++ indicates maximal β-catenin or p53 stabilization at >2 μM) | inhibition of IRAK1 activation | 100 | 2.9 | ++++ (++++ indicates maximal activation of p53 and DDR at >0.5 μM)
